Reference: PubChem BioAssay AID624167 (Sanford-Burnham Center for Chemical Genomics, 2012)
Active and inactive are the calls of the source.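 How the source made its calls: active means mean IC50 for reducing PEG3 promoter reporter signal at or below a set limit, with IC50 above the limit in both counter screens; inactive means the rest, including counter screen hits.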

Assays:
PEG-3 [1] = biological target: PEG-3 (UniProt Q6IN02); assay: Peg3 promoter luciferase inhibitors, potency, dose response, cell-based, HeLa, CREF/GAPDH counter-screen panel (AID 624167); settings: HeLa PEG-Prom luciferase reporter, overnight, CREF/GAPDH counter-screens, mean of runs
PEG-3 [2] = assay: as above; settings: HeLa PEG-Prom luciferase reporter, overnight, CREF/GAPDH counter-screens
[3] = run 1, dose range 1, individual replicate IC50 per panel
[4] = run 2, dose range 1, individual replicate IC50 per panel

Sequence of PEG-3 (UniProt Q6IN02) (Q6IN02 whole entry, looked up): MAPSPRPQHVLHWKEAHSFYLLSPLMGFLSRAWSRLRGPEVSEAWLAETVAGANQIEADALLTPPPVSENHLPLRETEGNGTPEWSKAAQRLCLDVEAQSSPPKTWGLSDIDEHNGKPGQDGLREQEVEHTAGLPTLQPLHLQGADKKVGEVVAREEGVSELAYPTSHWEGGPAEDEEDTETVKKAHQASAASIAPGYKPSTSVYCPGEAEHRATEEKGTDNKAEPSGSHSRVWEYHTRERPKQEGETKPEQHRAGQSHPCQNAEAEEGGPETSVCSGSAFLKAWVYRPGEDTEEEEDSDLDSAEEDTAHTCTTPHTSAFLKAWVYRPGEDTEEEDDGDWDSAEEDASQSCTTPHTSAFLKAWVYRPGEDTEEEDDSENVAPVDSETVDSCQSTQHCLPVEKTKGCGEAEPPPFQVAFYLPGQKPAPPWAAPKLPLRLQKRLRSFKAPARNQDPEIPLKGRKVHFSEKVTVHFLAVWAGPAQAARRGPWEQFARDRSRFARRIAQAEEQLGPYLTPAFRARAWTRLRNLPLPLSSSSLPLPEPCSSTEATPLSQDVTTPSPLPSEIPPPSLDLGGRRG

Structure (SMILES)	IC50 (PEG-3 [1])	IC50 (PEG-3 [2]; [3]) [µM]	IC50 (PEG-3 [2]; [4]) [µM]
CC(C)CC(N)c1csc(Nc2ccc(C(=O)c3ccccc3)cc2)n1 (centres undefined)	inactive	31.1	29.8
COc1cccc(C2CC3C(=O)C=CC2N3Cc2ccccc2)c1 (centres undefined)	13 µM	11.9	14.1
NC(c1csc(Nc2nccc(C(F)(F)F)n2)n1)C1CCCCC1 (centres undefined)	15.9 µM	19.1	12.8
CCOC(=O)c1c(NC(C)=O)sc2c(OCC(O)CNC(C)(C)C)c(Br)ccc12 (centres undefined)	13.6 µM	18	9.14
Nc1c(C(=O)Nc2cccc(C(=O)O)c2)sc2nc3c(cc12)CCCC3	11.2 µM	4.36	18
CC(=O)Nc1cccc(-c2cc(NC=O)c3ncc(-c4ccc(C(C)=O)cc4)n3c2)c1	inactive	6	> 100
COc1ccc2c(c1OC)C(=O)N1c3ccccc3C(=O)N(c3ccccc3F)C21 (centres undefined)	13.4 µM	15.1	11.6
OC1(c2ccc(Cl)c(Cl)c2)C[n+]2ccccc2N1Cc1ccccc1 (centres undefined)	15.1 µM	16	14.1
CCC(C)NCCOCCOc1ccc(Cl)c2ccccc12 (centres undefined)	18.1 µM	18.6	17.5
COc1cccc2sc(N(CCCN(C)C)C(=O)C(c3ccccc3)c3ccccc3)nc12	18.2 µM	18.2	18.2
c1ccc(CCNc2nc(-c3ccncc3)nc3ccccc23)cc1	13.1 µM	17.7	8.58
COc1ccc(C(C(=O)NCC2CCCO2)N(Cc2cccs2)C(=O)c2snc(C(N)=O)c2N)cc1 (centres undefined)	inactive	> 100	9.42
CC(C)(C)OC(=O)CC(S(=O)(=O)c1ccccc1)S(=O)(=O)c1ccccc1	14.3 µM	21	7.58
CC(C)CC(N)c1csc(Nc2ccc(C(=O)N(C)Cc3ccccc3)cn2)n1 (centres undefined)	inactive	14.2	29
C[C@@H](NCCCn1cnc2c(OCc3ccccc3)ncnc21)c1cccc2ccccc12	16.5 µM	17.7	15.2
COc1cc(/C=C/c2ccc3cccc(O)c3n2)c(Br)cc1O	inactive	63.2	42.7
CC(C)CN(C(=O)COC(=O)/C=C/c1ccc(Cl)c(Cl)c1)c1c(N)n(Cc2ccccc2)c(=O)[nH]c1=O	> 100 µM (inactive)	> 100	> 100

Structure (SMILES)	IC50 (PEG-3 [1])	IC50 (PEG-3 [2]; [3]) [µM]	IC50 (PEG-3 [2]; [4]) [µM]
COc1cccc(-c2cnc3c(NC=O)cc(-c4cccc(C(=O)N(C)C)c4)cn23)c1	18.8 µM	19.9	17.7
COc1ccc(C2c3ccc4ccccc4c3Oc3ncn(CCO)c(=N)c32)cc1OC (centres undefined)	14.7 µM	15.6	13.7
O=C1CCC2S/C(=C/Nc3ccc(C(F)(F)F)cc3)C(=O)N12 (centres undefined)	inactive	6.39	47.7
O=C(C[n+]1ccc(-c2cc(C(=O)Nc3cccc(C(F)(F)F)c3)c3ccccc3n2)cc1)c1cccc([N+](=O)[O-])c1	18.6 µM	23.4	13.8
CC(C)(C)c1ccc(OCCCNCc2ccccc2)cc1	inactive	28.8	18.3
CCCCn1nnnc1C(CCSC)N1CCC(n2c(=O)[nH]c3ccccc32)CC1 (centres undefined)	inactive	34.4	70.3
CCn1cc(CN2CCC(C(=O)Nc3cccc(-c4cccc(Cl)c4)c3)CC2)cn1	16.8 µM	19.3	14.4
Cc1ccc2cc3c(N)c4c(C)ccc(C)c4nc3nc2c1	inactive	> 100	17.1
Cc1c(C(=O)N2CCC3(CC2)OCCO3)sc2ncnc(N3CCN(c4ccccn4)CC3)c12	inactive	24	29
COc1ccccc1NC(=O)Nc1nc(C(N)CCc2ccccc2)cs1 (centres undefined)	14.2 µM	12.2	16.3
O=C(NC1CCCCC1)Sc1ccc(Cl)cc1	inactive	30.7	19.3
CN(CCOc1ccc(Cl)cc1)C(=O)c1cc(-c2ccco2)nc2ccccc12	15.1 µM	15.9	14.4
COc1ccc(CC(N)c2csc(NC(=O)Nc3cc(OC)ccc3OC)n2)cc1 (centres undefined)	16 µM	16.5	15.6
O=S(=O)(N[C@H]1C[C@@H](NS(=O)(=O)OCC(Cl)(Cl)Cl)C2CCCCC21)OCC(Cl)(Cl)Cl (some centres undefined)	12.5 µM	15.1	9.83
CCOc1cccc2sc(N(CCCN(C)C)C(=O)c3ccc(S(=O)(=O)N(CC)Cc4ccccc4)cc3)nc12	15.4 µM	19.1	11.8
COC(=O)C1=C(C(=O)OC)C(C(=O)OC)C(C(=O)OC)C(C(=O)OC)(C(=O)OC)C(C(=O)OC)=C1C(=O)OC (centres undefined)	13.8 µM	16.9	10.7
